Test results as given in PMC10620989, “Going beyond Binary: Rapid Identification of Protein–Protein Interaction Modulators Using a Multifragment Kinetic Target-Guided Synthesis Approach” (Journal of Medicinal Chemistry, 2023).
Like-named read-outs stand apart in the source and are kept apart here.

Experiments:
Mcl-1 [1] = molecular target: T1, Mcl-1 (Mus musculus, UniProt P97287); experiment: Multifragment KTGS screen against Mcl-1 (5 TA x 38 SZ per well), LC-MS/MS; details: for KTGS hit call against Mcl-1: multifragment incubation, 10 µM Mcl-1, LC-MS/MS traces with vs without protein; for Amplification coefficient 5TA x 38SZ: multifragment KTGS, 190 combinations per well, 10 μM Mcl-1, 20 μM each fragment, pH 7.4, 37 °C, 10 h, peak area with protein / without protein
[2] = molecular target: GST-tagged mouse Mcl-1-(152–309) (Mus musculus, UniProt P97287); experiment: Fluorescence polarization competitive binding assay, GST-Mcl-1 / FITC-Bim-BH3; details: for inhibition at 100 µM: read-out: inhibition in the fluorescence polarization assay, fragments tested individually; for inhibition at 50 µM: compound at 50 µM
Mcl-1 [3] = molecular target: T1, Mcl-1; experiment: Binary KTGS incubation (1 TA x 1 SZ) with Mcl-1, LC-MS/MS; details: binary incubation mixtures with and without Mcl-1
[4] = FP, GST-Mcl-1 and fluorescein-labeled Bim BH3 peptide, read-out: IC50 on Mcl-1

Chain of GST-tagged mouse Mcl-1-(152–309) (P97287 152-309): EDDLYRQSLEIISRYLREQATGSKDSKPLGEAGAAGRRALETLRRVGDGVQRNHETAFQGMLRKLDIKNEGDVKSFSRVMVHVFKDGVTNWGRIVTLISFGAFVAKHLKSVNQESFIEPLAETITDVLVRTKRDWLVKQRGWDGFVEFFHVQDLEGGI
T1 sequence (P97287 whole entry, the tested form may be a part): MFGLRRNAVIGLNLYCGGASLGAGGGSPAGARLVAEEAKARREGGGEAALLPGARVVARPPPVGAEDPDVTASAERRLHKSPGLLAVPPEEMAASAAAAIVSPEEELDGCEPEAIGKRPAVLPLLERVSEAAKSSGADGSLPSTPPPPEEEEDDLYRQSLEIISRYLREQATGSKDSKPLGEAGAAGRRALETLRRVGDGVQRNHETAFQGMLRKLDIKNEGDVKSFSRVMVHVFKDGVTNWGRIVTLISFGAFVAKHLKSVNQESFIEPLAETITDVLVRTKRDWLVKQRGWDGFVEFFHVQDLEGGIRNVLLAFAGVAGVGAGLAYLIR

KTGS hit call against Mcl-1 (Mcl-1 [1]) | inhibition at 50 µM ([2]; FP) | Amplification coefficient 1TA x 1SZ (Mcl-1 [3]) | Amplification coefficient 5TA x 38SZ (Mcl-1 [1]) | IC50 [2, 4] | SMILES | inhibition at 100 µM [2] | IC50 ([2]; IC50 on Mcl-1)
non-hit |  |  |  |  | CC(=O)Nc1ccc(S(=O)(=O)NC(=O)Cn2c3ccccc3c3ccccc32)cc1 [SZ3TA15] |  | 
 |  |  |  |  | [N-]=[N+]=NS(=O)(=O)c1ccc(NCCSc2ccccc2)c([N+](=O)[O-])c1 [SZ4] | 23% | 
 | 19.2% | 10 | 20 |  | COc1cc2c(cc1OC)C(c1ccccc1)N(Cc1ccc(S(=O)(=O)NC(=O)CCCN3C(=O)C(c4ccc(F)cc4F)=C(c4ccc(F)cc4F)C3=O)cc1)CC2 (centres unmarked) [SZ8TA20, O=C(NS(C1=CC=C(CN2CCC(C=C(OC)C(OC)=C3)=C3C2C4=CC=CC=C4)C=C1)(=O)=O)CCCN5C(C(C6=C(F)C=C(F)C=C6)=C(C7=CC=C(F)C=C7F)C5=O)=O] |  | 
 | > 99% | 18 | 22 | 20.4 µM | [N-]=[N+]=NS(=O)(=O)c1ccc(CN(CCSc2ccccc2)Cc2ccc(S(=O)(=O)NC(=O)c3ccc(CCc4ccccn4)cc3)cc2)cc1 [SZ9TA17, O=C(NS(C1=CC=C(CN(CC2=CC=C(S(=O)(N=[N+]=[N-])=O)C=C2)CCSC3=CC=CC=C3)C=C1)(=O)=O)C4=CC=C(CCC5=NC=CC=C5)C=C4] |  | 
 | 47.6% | 8 | 15 |  | [N-]=[N+]=NS(=O)(=O)c1ccc(CN(CCSc2ccccc2)Cc2ccc(S(=O)(=O)NC(=O)c3ccc(-c4ccccn4)cc3)cc2)cc1 [SZ9TA25, O=C(NS(C1=CC=C(CN(CCSC2=CC=CC=C2)CC3=CC=C(S(=O)(N=[N+]=[N-])=O)C=C3)C=C1)(=O)=O)C4=CC=C(C5=NC=CC=C5)C=C4] |  | 
 |  |  |  |  | [N-]=[N+]=NS(=O)(=O)c1ccc(CN(CCSc2ccccc2)Cc2ccc(S(=O)(=O)N=[N+]=[N-])cc2)cc1 [SZ9] | 13% | 
 | 37.4% | 8 | 10 |  | NS(=O)(=O)c1ccc(CN(CCSc2ccccc2)Cc2ccc(S(=O)(=O)NC(=O)Cn3c4ccccc4c4ccccc43)cc2)cc1 [SZ10TA15, O=C(NS(C1=CC=C(CN(CC2=CC=C(S(=O)(N)=O)C=C2)CCSC3=CC=CC=C3)C=C1)(=O)=O)CN4C(C=CC=C5)=C5C6=C4C=CC=C6] |  | 
 | 93.6% | 5 | 12 |  | NS(=O)(=O)c1ccc(CN(CCSc2ccccc2)Cc2ccc(S(=O)(=O)NC(=O)c3ccc(-c4ccccn4)cc3)cc2)cc1 [SZ10TA25, O=C(NS(C1=CC=C(CN(CCSC2=CC=CC=C2)CC3=CC=C(S(=O)(N)=O)C=C3)C=C1)(=O)=O)C4=CC=C(C5=NC=CC=C5)C=C4] |  | 
 | 64.1% | 6 | 7 |  | NS(=O)(=O)c1ccc(CN(CCSc2ccccc2)Cc2ccc(S(=O)(=O)NC(=O)CC3Sc4ccccc4NC3=O)cc2)cc1 (centres unmarked) [SZ10TA34, O=C(NS(C1=CC=C(CN(CCSC2=CC=CC=C2)CC3=CC=C(S(=O)(N)=O)C=C3)C=C1)(=O)=O)CC4SC5=CC=CC=C5NC4=O] |  | 
 | 12.4% | 40 | 20 |  | NS(=O)(=O)c1ccc(CN(CCSc2ccccc2)Cc2ccc(S(=O)(=O)NC(=O)c3ccc4oc(-c5ccccc5)cc4c3)cc2)cc1 [SZ10TA41, O=C(NS(C1=CC=C(CN(CCSC2=CC=CC=C2)CC3=CC=C(S(=O)(N)=O)C=C3)C=C1)(=O)=O)C4=CC(C=C(C5=CC=CC=C5)O6)=C6C=C4] |  | 
 | 63.4% | 9 | 12 |  | NS(=O)(=O)c1ccc(CN(CCSc2ccccc2)Cc2ccc(S(=O)(=O)NC(=O)c3cccc(NCCc4ccccc4)c3)cc2)cc1 [SZ10TA44, O=C(NS(C1=CC=C(CN(CCSC2=CC=CC=C2)CC3=CC=C(S(=O)(N)=O)C=C3)C=C1)(=O)=O)C4=CC(NCCC5=CC=CC=C5)=CC=C4] |  | 
non-hit |  |  |  |  | CC(C)(C)c1ccc(-c2ccc(S(=O)(=O)NC(=O)c3ccccc3)cc2)cc1 [SZ11TA1] |  | 
 | 63.6% | 7 | 12 |  | CC(C)(C)c1ccc(-c2ccc(S(=O)(=O)NC(=O)c3ccc4c(ccn4Cc4ccc(C(F)(F)F)cc4C(F)(F)F)c3)cc2)cc1 [SZ11TA30, O=C(NS(C1=CC=C(C2=CC=C(C(C)(C)C)C=C2)C=C1)(=O)=O)C3=CC(C=CN4CC5=CC=C(C(F)(F)F)C=C5C(F)(F)F)=C4C=C3] |  | 
 | > 99% | 5.5 | 8 | 21.9 µM | Cn1cc(C(=O)C2CCCCC2)c2cc(C(=O)NS(=O)(=O)c3ccc(-c4ccc(C(C)(C)C)cc4)cc3)ccc21 [SZ11TA40, O=C(NS(C1=CC=C(C2=CC=C(C(C)(C)C)C=C2)C=C1)(=O)=O)C3=CC(C(C(C4CCCCC4)=O)=CN5C)=C5C=C3] |  | 
 | 54.1% | 4 | 7 |  | CC1(C)CCN(c2ccc(C(=O)NS(=O)(=O)c3ccc(CNc4cccc([N+](=O)[O-])c4)cc3)cc2)CC1 [SZ12TA2, O=C(NS(C1=CC=C(CNC2=CC=CC([N+]([O-])=O)=C2)C=C1)(=O)=O)C(C=C3)=CC=C3N4CCC(C)(C)CC4] |  | 
 | 93.1% | 15 | 24 |  | Cn1cc(C(=O)C2CCCCC2)c2cc(C(=O)NS(=O)(=O)c3ccc(COc4ccc5c(=O)cc(-c6ccccc6)oc5c4)cc3)ccc21 [SZ14TA40, O=C(NS(C1=CC=C(COC2=CC=C(C(C=C(C3=CC=CC=C3)O4)=O)C4=C2)C=C1)(=O)=O)C5=CC=C6C(C(C(C7CCCCC7)=O)=CN6C)=C5] |  | 
 | 58.8% | 6 | 7 |  | O=C(NS(=O)(=O)c1ccc(CN(CCSc2ccccc2)Cc2c(F)cccc2Cl)cc1)c1ccc(-c2ccc(F)cc2)cc1 [SZ15TA14, O=C(NS(C1=CC=C(CN(CCSC2=CC=CC=C2)CC3=C(F)C=CC=C3Cl)C=C1)(=O)=O)C4=CC=C(C5=CC=C(F)C=C5)C=C4] |  | 
 | 53.6% | 10 | 9 |  | O=C(Cn1c2ccccc2c2ccccc21)NS(=O)(=O)c1ccc(CN(CCSc2ccccc2)Cc2c(F)cccc2Cl)cc1 [SZ15TA15, O=C(NS(C1=CC=C(CN(CCSC2=CC=CC=C2)CC3=C(F)C=CC=C3Cl)C=C1)(=O)=O)CN4C(C=CC=C5)=C5C6=C4C=CC=C6] |  | 
 | > 99% |  |  |  | Cc1cc(OCCCc2c(C(=O)NS(=O)(=O)c3ccc(C(=O)O)o3)[nH]c3c(-c4c(C)nn(C)c4C)c(Cl)ccc23)cc(C)c1Cl [compound 60, O=C(NS(C1=CC=C(C(O)=O)O1)(=O)=O)C2=C(CCCOC3=CC(C)=C(Cl)C(C)=C3)C4=CC=C(Cl)C(C5=C(C)N(C)N=C5C)=C4N2, reference compound] |  | 

SMILES | KTGS hit call against Mcl-1 (Mcl-1 [1]) | inhibition at 50 µM ([2]; FP) | Amplification coefficient 1TA x 1SZ (Mcl-1 [3]) | Amplification coefficient 5TA x 38SZ (Mcl-1 [1]) | IC50 [2, 4] | inhibition at 100 µM [2] | IC50 ([2]; IC50 on Mcl-1)
O=C(NS(=O)(=O)c1ccc(CN(CCSc2ccccc2)Cc2c(F)cccc2Cl)cc1)c1cccc2ccccc12 [SZ15TA7, O=C(NS(C1=CC=C(CN(CCSC2=CC=CC=C2)CC3=C(F)C=CC=C3Cl)C=C1)(=O)=O)C4=C(C=CC=C5)C5=CC=C4] |  | 98.4% | 9 | 8 |  |  | 15.4 µM
COc1ccc(Cc2ccc(C(=O)NS(=O)(=O)c3ccc(CN(CCSc4ccccc4)Cc4c(F)cccc4Cl)cc3)cc2)c(OC)c1OC [SZ15TA24, O=C(NS(C1=CC=C(CN(CCSC2=CC=CC=C2)CC3=C(F)C=CC=C3Cl)C=C1)(=O)=O)C4=CC=C(CC5=CC=C(OC)C(OC)=C5OC)C=C4] |  | 70.8% | 15 | 20 |  |  | 
